Among the data in ChEMBL document CHEMBL4364294 (J Med Chem, 2019) are predicted hepatic clearance values, retold here.

The data set can be described thus: Intrinsic clearance in human liver microsomes. Format: ADME, Microsome. The note with it: read-out: CLH.

Consider `OC(CC1c2c(F)cccc2-c2cncn21)C1CCC(F)(F)CC1` (stereo unspecified), for which the predicted hepatic clearance is 15.3 mL/min/kg.
